For experiment [1], the target named is T1, Cyclin-dependent kinase 11A (Homo sapiens) (UniProt Q9UQ88).
T1 sequence (whole entry): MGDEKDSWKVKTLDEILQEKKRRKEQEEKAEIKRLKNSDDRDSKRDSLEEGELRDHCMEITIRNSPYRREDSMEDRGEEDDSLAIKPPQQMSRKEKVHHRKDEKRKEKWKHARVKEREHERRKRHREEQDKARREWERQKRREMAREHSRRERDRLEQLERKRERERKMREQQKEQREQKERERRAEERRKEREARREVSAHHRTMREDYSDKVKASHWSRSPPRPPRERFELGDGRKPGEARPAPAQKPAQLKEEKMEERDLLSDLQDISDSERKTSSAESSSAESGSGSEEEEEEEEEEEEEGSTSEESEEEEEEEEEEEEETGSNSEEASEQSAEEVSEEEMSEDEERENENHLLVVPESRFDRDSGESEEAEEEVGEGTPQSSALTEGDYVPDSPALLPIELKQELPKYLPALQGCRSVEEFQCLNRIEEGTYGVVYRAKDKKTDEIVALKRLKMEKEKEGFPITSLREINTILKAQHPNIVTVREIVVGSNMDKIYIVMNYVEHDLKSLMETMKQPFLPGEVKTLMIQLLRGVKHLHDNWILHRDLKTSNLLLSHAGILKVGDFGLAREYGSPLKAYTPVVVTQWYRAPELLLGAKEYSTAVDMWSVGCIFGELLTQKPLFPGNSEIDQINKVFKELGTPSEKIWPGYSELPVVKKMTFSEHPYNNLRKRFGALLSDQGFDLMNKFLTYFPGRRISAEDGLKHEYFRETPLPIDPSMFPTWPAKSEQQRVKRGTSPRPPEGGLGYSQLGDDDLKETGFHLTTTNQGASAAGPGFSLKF
As to conditions: at 10 µM.

The target in experiment [2] is T2, Tyrosine-protein kinase receptor TYRO3 (Homo sapiens) (UniProt Q06418).
T2 sequence (whole entry): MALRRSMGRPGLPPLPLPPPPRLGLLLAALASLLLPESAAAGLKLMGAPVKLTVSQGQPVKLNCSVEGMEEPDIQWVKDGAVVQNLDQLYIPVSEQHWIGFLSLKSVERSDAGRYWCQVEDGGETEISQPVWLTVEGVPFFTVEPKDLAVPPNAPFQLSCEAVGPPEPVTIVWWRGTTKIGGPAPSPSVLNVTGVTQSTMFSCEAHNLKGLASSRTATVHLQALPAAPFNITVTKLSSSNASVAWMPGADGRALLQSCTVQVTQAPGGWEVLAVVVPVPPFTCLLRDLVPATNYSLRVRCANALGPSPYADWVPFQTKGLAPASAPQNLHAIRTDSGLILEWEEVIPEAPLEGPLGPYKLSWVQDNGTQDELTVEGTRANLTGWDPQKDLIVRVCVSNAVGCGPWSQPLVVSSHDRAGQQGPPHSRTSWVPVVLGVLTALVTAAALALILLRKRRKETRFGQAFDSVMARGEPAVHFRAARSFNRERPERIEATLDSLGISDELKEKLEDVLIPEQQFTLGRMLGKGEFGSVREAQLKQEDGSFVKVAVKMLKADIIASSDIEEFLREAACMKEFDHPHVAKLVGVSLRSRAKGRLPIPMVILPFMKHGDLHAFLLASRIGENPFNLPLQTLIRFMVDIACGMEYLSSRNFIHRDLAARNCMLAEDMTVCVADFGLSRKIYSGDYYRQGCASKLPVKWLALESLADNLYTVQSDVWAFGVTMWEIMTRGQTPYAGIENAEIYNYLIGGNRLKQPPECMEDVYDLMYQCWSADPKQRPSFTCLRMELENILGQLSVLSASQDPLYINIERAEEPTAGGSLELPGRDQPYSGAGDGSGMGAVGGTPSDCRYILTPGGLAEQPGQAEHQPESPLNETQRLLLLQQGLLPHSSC
To be noted: at 10 µM.

The target in experiment [3] is T3, Ephrin type-B receptor 3 (Homo sapiens) (UniProt P54753).
T3 sequence (whole entry): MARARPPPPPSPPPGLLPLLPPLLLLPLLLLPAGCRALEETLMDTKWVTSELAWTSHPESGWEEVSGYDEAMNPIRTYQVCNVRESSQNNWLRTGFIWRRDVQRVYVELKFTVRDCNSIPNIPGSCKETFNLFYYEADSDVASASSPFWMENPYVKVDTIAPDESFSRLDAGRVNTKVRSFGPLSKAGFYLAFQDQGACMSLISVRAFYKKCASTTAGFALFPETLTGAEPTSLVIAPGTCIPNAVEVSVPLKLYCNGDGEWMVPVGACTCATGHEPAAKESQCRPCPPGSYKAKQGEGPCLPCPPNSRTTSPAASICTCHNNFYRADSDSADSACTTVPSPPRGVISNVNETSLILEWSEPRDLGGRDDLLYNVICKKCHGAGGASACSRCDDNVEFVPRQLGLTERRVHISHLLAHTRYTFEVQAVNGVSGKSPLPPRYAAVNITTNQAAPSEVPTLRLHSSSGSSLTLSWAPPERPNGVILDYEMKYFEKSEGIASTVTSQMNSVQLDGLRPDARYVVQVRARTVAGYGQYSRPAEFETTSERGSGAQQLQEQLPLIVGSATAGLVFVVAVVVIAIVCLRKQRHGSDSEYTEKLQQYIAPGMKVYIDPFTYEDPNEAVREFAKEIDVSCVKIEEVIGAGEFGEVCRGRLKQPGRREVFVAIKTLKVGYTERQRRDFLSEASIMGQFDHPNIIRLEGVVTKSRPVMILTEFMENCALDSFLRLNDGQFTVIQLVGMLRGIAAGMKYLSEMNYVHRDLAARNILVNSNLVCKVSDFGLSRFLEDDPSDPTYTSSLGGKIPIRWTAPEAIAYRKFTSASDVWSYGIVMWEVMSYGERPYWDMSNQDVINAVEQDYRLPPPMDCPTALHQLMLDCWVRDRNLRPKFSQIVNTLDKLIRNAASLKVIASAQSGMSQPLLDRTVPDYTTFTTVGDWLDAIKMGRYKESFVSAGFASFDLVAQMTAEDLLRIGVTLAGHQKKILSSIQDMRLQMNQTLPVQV
As to the kind of experiment: Selectivity interaction (KinomeScan (DiscoverX)) EUB0000092b EPHB3. As to conditions: at 10 µM.

For experiment [4], the target named is Tyrosine-protein kinase SYK (Homo sapiens, UniProt P43405). As to the kind of experiment: Selectivity interaction (ActivX KiNativ screen (kinase selectivity in THP-1 cell lysates)) EUB0000639a SYK. In kind it is subcellular. As to conditions: lysate.
The target in experiment [5] is STE20/SPS1-related proline-alanine-rich protein kinase (Homo sapiens) (UniProt Q9UEW8). Put plainly: Selectivity interaction (Kinome Scan (DiscoverX)) EUB0000229b STK39. As to conditions: at 10 µM.

Turning to `CCN(CC)CCCCNc1ncc2cc(-c3cc(OC)cc(OC)c3)c(NC(=O)NC(C)(C)C)nc2n1`, the % of control in experiment [1] and in experiment [2] was 100% each time.
`CCC(=O)N1CCN(c2ccc(-n3c(=O)ccc4cnc5ccc(-c6cnc7ccccc7c6)cc5c43)cc2C(F)(F)F)CC1`: the % of control in experiment [3] is 85%.
In the case of `CC[C@@H]1[C@H](F)C(=O)N[C@@H]1COc1nccc2cc(C(N)=O)c(OC)cc12` [ZIMLOVISERTIB], the % of inhibition in experiment [4] (at 0.01 µM) came out at 3.2%; in experiment [4] (at 0.04 µM) it was 14.7%; in experiment [4] (at 0.2 µM), 7.1%; in experiment [4] (at 1 µM) it was 16.1%; in experiment [4] (at 5 µM), 2.5%.
As to `COc1cc(N(C)c2ccnc3ccc(C(F)(F)F)cc23)cc(OC)c1OC`, the % binding in experiment [5] came out at 98%.

The values are drawn from ChEMBL document CHEMBL5465560, “Selectivity Literature for EUbOPEN Chemogenomic Library” (2024).
